# Measurements from paper PMC6757289, “Design and Characterization of SGK3-PROTAC1, an Isoform Specific SGK3 Kinase PROTAC Degrader” (ACS Chemical Biology, 2019).
# Where two headings read alike, the source gives them in different places.
# Legend:
# Assay in all cases: kinase profiling panel
# Type in all cases: biochemical
# Conditions in all cases: read-out: % Activity Remaining
# S6K1 = S6K1 (Homo sapiens, UniProt P23443)
# Excerpt: (§1) Protein kinase profiling against a Dundee panel of 140 protein kinases was undertaken at the International Centre for Protein Kinase Profiling. The result for each kinase was presented as a mean kinase activity of the reaction taken in triplicate relative to a control sample treated with DMSO. Assay conditions and abbreviations are available at http://www.kinase-screen.mrc.ac.uk.
# JNK3 = JNK3 (Homo sapiens, UniProt P53779)
# Sequence of JNK3 (P53779 whole entry): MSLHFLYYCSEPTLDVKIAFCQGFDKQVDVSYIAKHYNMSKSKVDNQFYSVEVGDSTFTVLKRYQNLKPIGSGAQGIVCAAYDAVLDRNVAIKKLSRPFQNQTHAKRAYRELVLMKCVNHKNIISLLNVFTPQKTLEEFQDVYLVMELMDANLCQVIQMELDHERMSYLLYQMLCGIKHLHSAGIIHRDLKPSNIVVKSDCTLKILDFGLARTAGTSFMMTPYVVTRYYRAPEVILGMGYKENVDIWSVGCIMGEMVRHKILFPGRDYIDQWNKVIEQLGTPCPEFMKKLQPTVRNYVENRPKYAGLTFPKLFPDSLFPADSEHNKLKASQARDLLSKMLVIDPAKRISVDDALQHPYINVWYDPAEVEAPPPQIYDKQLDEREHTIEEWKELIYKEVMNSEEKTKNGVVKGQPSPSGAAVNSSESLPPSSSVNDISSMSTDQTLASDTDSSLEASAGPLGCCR
# Excerpt: as §1
# OSR1 = OSR1 (Homo sapiens, UniProt O95747)
# Sequence of OSR1 (O95747 whole entry): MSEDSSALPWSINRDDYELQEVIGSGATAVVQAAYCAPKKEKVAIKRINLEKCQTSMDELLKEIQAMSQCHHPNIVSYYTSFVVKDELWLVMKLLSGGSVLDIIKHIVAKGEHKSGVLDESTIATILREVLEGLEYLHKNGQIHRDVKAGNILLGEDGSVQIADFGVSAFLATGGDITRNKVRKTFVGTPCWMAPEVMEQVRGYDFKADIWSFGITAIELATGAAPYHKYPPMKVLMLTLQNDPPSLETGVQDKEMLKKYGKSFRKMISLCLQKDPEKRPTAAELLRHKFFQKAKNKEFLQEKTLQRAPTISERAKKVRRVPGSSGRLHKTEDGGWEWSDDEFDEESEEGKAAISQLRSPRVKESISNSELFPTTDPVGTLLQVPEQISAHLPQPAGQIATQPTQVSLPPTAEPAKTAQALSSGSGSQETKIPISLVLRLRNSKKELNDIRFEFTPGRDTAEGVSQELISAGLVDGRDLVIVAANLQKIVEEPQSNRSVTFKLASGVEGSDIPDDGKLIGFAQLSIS
# Excerpt: as §1
# PDK1 = molecular target: T1, PDK1 (Homo sapiens, UniProt O15530)
# T1 sequence (O15530 1-556): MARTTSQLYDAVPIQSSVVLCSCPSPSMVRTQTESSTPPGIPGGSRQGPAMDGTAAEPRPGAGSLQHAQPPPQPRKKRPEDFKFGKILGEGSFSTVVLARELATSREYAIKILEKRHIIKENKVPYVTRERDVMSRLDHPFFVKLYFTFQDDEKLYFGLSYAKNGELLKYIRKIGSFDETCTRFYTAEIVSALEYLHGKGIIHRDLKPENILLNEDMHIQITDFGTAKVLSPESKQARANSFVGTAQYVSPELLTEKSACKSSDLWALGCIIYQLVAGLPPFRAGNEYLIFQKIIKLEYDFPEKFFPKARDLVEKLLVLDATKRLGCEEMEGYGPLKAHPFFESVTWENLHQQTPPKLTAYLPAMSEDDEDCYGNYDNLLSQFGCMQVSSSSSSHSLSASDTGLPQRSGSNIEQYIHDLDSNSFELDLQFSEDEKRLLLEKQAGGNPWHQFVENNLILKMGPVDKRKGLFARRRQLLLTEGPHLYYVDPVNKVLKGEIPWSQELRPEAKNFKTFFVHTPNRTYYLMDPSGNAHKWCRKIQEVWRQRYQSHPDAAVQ
# Excerpt: as §1
# RIPK2 = RIPK2 (Homo sapiens, UniProt O43353)
# Sequence of RIPK2 (O43353 whole entry): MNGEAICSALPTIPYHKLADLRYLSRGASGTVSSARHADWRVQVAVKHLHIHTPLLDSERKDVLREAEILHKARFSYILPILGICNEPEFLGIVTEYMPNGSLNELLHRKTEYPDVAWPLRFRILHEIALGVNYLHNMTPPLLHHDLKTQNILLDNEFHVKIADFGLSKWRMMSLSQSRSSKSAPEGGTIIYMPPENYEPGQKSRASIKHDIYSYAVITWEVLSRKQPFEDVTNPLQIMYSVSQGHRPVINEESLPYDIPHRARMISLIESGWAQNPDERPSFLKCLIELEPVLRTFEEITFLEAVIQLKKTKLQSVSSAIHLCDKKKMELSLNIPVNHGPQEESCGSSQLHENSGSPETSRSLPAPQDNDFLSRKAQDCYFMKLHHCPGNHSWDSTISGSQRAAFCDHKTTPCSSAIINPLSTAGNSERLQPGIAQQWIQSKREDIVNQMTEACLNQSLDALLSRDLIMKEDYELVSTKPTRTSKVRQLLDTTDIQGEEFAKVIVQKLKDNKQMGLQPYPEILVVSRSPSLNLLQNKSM
# Excerpt: as §1
# FGF-R1 = FGF-R1 (Homo sapiens, UniProt P11362)
# Sequence of FGF-R1 (P11362 22-822): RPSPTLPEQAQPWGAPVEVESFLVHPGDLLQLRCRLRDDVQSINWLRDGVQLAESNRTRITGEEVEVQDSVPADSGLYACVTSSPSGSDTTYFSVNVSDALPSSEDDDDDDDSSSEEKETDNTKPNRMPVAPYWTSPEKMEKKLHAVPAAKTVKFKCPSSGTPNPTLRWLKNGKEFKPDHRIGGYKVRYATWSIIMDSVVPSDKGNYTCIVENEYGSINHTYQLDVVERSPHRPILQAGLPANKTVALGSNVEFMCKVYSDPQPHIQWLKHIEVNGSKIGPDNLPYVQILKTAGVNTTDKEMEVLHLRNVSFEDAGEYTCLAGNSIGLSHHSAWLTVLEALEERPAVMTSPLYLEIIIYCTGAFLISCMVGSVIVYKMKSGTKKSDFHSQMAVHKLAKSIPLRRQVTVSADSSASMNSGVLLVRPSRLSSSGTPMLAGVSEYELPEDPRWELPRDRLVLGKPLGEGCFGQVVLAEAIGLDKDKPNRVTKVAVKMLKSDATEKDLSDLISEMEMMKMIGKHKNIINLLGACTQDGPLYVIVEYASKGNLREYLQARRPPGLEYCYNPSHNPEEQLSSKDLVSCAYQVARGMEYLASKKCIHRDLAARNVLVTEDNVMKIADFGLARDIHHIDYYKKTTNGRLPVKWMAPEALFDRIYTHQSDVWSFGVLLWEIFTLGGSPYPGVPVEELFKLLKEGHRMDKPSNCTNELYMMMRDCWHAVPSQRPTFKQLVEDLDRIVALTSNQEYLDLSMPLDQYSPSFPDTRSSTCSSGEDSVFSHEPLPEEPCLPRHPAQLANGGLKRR
# Excerpt: as §1
# ASK1 = molecular target: T2, ASK1 (Homo sapiens, UniProt Q99683)
# T2 sequence (Q99683 1-1374): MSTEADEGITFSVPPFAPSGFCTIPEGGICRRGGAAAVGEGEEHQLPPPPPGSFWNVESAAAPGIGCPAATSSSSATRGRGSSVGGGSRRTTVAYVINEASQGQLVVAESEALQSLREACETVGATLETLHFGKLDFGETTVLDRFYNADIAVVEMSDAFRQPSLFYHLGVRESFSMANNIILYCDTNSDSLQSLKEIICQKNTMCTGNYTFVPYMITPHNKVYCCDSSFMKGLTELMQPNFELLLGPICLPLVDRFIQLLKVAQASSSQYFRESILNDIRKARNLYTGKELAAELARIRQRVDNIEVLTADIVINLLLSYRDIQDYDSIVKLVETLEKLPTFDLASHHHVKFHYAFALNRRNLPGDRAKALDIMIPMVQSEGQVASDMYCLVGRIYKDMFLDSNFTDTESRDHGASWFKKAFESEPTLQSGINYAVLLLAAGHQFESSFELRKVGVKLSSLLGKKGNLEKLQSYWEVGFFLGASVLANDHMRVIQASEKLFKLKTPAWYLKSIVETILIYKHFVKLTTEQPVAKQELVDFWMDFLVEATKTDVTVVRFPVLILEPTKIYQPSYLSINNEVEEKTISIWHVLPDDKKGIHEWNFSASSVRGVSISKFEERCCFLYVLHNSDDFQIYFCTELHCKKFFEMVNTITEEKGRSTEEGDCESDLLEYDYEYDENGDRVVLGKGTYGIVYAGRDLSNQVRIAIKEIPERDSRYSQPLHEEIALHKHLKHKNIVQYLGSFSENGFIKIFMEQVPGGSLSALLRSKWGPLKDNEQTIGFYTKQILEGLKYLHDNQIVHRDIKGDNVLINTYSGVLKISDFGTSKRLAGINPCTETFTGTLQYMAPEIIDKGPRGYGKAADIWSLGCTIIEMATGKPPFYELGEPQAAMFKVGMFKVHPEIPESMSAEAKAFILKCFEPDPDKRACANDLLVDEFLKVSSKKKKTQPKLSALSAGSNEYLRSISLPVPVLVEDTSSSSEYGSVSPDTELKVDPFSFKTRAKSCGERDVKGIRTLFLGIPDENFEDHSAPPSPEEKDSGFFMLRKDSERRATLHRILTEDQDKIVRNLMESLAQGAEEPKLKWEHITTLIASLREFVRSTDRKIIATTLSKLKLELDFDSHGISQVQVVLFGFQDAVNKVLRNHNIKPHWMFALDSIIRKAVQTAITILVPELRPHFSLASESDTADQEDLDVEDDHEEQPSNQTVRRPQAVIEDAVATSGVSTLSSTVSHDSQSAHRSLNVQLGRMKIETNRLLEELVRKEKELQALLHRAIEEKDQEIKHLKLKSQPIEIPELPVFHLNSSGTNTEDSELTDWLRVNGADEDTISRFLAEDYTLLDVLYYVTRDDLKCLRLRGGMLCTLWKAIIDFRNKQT
# Excerpt: as §1
# Sequence of S6K1 (P23443 whole entry): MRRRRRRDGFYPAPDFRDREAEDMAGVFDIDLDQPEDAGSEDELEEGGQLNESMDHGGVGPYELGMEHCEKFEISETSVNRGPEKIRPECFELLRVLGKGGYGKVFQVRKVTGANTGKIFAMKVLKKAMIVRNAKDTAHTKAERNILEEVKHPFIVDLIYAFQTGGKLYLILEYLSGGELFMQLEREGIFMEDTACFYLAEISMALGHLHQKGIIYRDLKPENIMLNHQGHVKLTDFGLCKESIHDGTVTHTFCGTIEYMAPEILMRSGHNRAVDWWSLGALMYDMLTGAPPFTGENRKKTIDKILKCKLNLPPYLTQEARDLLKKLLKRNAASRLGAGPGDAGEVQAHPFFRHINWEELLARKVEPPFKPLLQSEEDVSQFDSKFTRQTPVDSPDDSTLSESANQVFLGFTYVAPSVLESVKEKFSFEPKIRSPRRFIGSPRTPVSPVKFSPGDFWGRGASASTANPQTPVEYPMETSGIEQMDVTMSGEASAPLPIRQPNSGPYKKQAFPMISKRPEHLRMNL
SMILES,remaining activity at 1 µM (S6K1),remaining activity at 1 µM (JNK3),remaining activity at 1 µM (OSR1),remaining activity at 1 µM (PDK1),remaining activity at 1 µM (RIPK2),remaining activity at 1 µM (FGF-R1),remaining activity at 1 µM (ASK1),remaining activity at 1 µM (S6K1; 1 µM),remaining activity at 1 µM (JNK3; 1 µM),remaining activity at 1 µM (OSR1; 1 µM),remaining activity at 1 µM (PDK1; 1 µM),remaining activity at 1 µM (RIPK2; 1 µM),remaining activity at 1 µM (FGF-R1; 1 µM),remaining activity at 1 µM (ASK1; 1 µM)
"COc1ccc(Cl)c(S(=O)(=O)Nc2ccc(-c3nc(OC[C@H]4CNCCO4)c4c(C)n[nH]c4n3)cc2)c1 [290-R, reference compound]",1%,104%,110%,117%,124%,104%,104%,–,–,–,–,–,–,–
"Cc1ccc(F)c(S(=O)(=O)Nc2ccc(-c3nc(OC[C@H]4CNCCO4)c4cn[nH]c4n3)cc2)c1 [308-R, reference compound]",1%,112%,75%,88%,122%,115%,87%,–,–,–,–,–,–,–
Cc1ccc(F)c(S(=O)(=O)Nc2ccc(-c3nc(OC[C@H]4CN(CCCCCCOCCOCCOCC(=O)N[C@H](C(=O)N5C[C@H](O)C[C@H]5C(=O)NCc5ccc(-c6scnc6C)cc5)C(C)(C)C)CCO4)c4cn[nH]c4n3)cc2)c1 [SGK3-PROTAC1],–,–,–,–,–,–,–,19%,92%,103%,99%,88%,108%,113%
Cc1ccc(F)c(S(=O)(=O)Nc2ccc(-c3nc(OC[C@H]4CN(CCCCCCOCCOCCOCC(=O)N[C@H](C(=O)N5C[C@@H](O)C[C@H]5C(=O)NCc5ccc(-c6scnc6C)cc5)C(C)(C)C)CCO4)c4cn[nH]c4n3)cc2)c1 [cisSGK3-PROTAC1],–,–,–,–,–,–,–,20%,83%,118%,87%,94%,106%,102%
